Assay [1] concerns the target T1, MERS-CoV PLpro (Human betacoronavirus 2c EMC/2012, UniProt K0BWD0). The assay can be described thus: biochemical. Particulars: read-out: SA (111.5 μM). The class given is binding.
For assay [2], the target named is T1, MERS-CoV PLpro. Description: biochemical.
Assay [3] has as its target T1, MERS-CoV PLpro. The class given is binding.

Structures are written as SMILES.

The values below come from article PMC10937238 (Saudi Pharmaceutical Journal : SPJ, 2024).

Take `COc1cc(/C=C/C(=O)O)cc(OC)c1O` [sinapic acid]: the ΔTm at 111.5 µM in assay [1] was found to be 18.4 °C. Besides, the IC50 in assay [2] is 68.6 µM.

For the molecule `COc1ccc2c(c1)c(CC(=O)O)c(C)n2C(=O)c1ccc(Cl)cc1` [Indomethacin], the “Indomethacin (279.5 μM)” value in assay [3] stood at 1.44 °C.

By IC50 is commonly meant the midpoint of a concentration-inhibition curve. Low readings indicate greater potency, high ones weaker potency.
